Tests used:
[1] = tested on: MRE11 recruitment at the Cas9 target site (VEGFA site 3 on-target site; HEK293T, K562); assay: MRE11 ChIP-qPCR at Cas9 target sites after exposure to DNA repair inhibitors; type: cell-based, human; settings: for MRE11 recruitment at the target site (ChIP-qPCR): Cas9 with gRNA targeting VEGFA site 3, HEK293T, 12 hours, 1 μM KU-60648, 20 µM Nu7026, 10 μM Ku-55933, 1 μM Scr7, 10 μM Olaparib
Source text: (§1) The supernatant was decanted.

[2] = tested on: MRE11 at Cas9 PCSK9 target sites in mouse liver; assay: DISCOVER-Seq+ in liver of mice given adenovirus Cas9/gRNA targeting PCSK9; type: in vivo, mouse (C57BL/6J)
Procedure: For in vivo gene delivery, 8-10 week old mice were anesthetized with 2.5% isofluorane/oxygen mixture. Mice received a single retro-orbital injection of 1×10^9 infectious adenoviral particles (Ad-Cas9-U6-mPCSK9-sgRNA) in 100 μL sterile saline. Immediately following, mice received intraperitoneal delivery of KU-60648 dosed at 25 mg/kg (or vehicle only) in 100 μL of citrate buffer, or 100 μL of citrate buffer vehicle. Mice received a dose of KU-60648 or vehicle every 12 hrs via intraperitoneal injection.
At the experimental endpoint of 12 h, mice were anesthetized with isofluorane and euthanized via cervical dislocation. Liver tissue was harvested, washed 3× in 2 mL PBS with 1× protease inhibitor (Halt™ Protease Inhibitor Cocktail, Thermo), then disrupted the tissue in 1 mL PBS with 1× protease inhibitor using a loose-fitting Dounce homogenizer. For MRE11 ChIP-seq, homogenized tissue was placed on ice and used immediately.
as §1

[3] = tested on: MRE11 at Cas9 TRA target sites in primary human T-cells; assay: DISCOVER-Seq+ in primary human T-cells with Cas9 targeting TRA (CAR knock-in); type: cell-based
Source text: as §1

[4] = tested on: MRE11 at Cas9 on- and off-target sites in K562 cells; assay: MRE11 ChIP-seq with BLENDER off-target detection (DISCOVER-Seq+) in K562 cells; type: cell-based, human
Source text: as §1

Cas9 editing of ACTB = assay: Sequencing of insertion-deletion mutations (indels) after Cas9 targeting ACTB; type: cell-based; settings: 48 hours after Cas9 editing; especially +1 insertions reduced in favor of larger -3 deletions
Procedure: Genomic DNA was extracted using the DNeasy Blood & Tissue Kit (Qiagen 69504) following manufacturer instructions. Approximately 1 million cells were used from cell lines and iPSCs. Approximately 10-20 μL of mouse liver cell suspension was used out of 1.5 mL total, and the genome extraction protocol included the Buffer ATL step since this sample is tissue.
Genomic DNA samples were amplified with PCR using Q5 Hot Start High-Fidelity 2X Master Mix (New England BioLabs M0494). For example, the primer set for amplifying around the FANCF site 2 on-target site is NGS_FANCFs2_ON_F and NGS_FANCFs2_ON_R. After amplicon PCR, cleanup was performed using 1.4×AMPure XP (Beckman Coulter A63881) following the manufacturer's instructions. Dual-indexing PCR was performed using KAPA HiFi HotStart ReadyMix (Roche 07958935001) and PCR cleanup was performed using 1×AMPure XP. Samples were quantified using QuBit (Thermo Fisher Scientific), pooled, diluted, and loaded onto a MiSeq (Illumina). […]
Sequencing reads were either demultiplexed automatically using MiSeq Reporter (Illumina) or with a custom Python script to individual FASTQ files. For indel calling, sequencing reads were scanned for exact matches to two 20-bp sequences that flank +/−20 bp from the ends of the target sequence. If no exact matches were found, the read was excluded from analysis. […]

[5] = previous evaluation, ref [21]; cited from earlier work
[6] = tested on: 53BP1 and BRCA1 foci in U2OS cells stably expressing Cas9-EGFP; assay: Super-resolution STED microscopy of 53BP1 and BRCA1 repair foci after Cas9-induced DNA breaks; type: cell-based
Procedure: U2OS cells stably expressing Cas9-EGFP cells were seeded onto 35-mm, glass bottom dishes and transfected with mtgRNAs for 12-24 hrs. Cleavage was activated by UV light for 1 minute. To fix cells, 4% of pre-warmed paraformaldehyde in 1×PBS was used for 10 min. After rinsing 3 times with 1×PBS, cell membrane permeabilization was done with Triton-X used for 10 min. Then, cells 2% w/v BSA in 1×PBS was used for blocking for 1 hr and at room temperature. The primary antibodies, mouse anti-BRCA1 (D-9 sc-6954 Santa Cruz) and anti-53bpl (Abcam, ab172580), were diluted (1:500) in 1×PBS and directly added into the imaging dish. After 1 hr incubation, the primary antibody was removed, and the sample was washed with 1×PBS three times. The samples were then incubated for 30 minutes with the secondary antibodies Alexa-594 and Atto-647N diluted (1:1000) in 1×PBS. Finally, the sample was rinsed three times and mounted with Prolong Diamond mounting media (Thermo Fisher Scientific) overnight.
All STED images were obtained using a home-built two-color STED microscope (Han and Ha, 2015: Ma and Ha, 2019). In short, a femtosecond laser beam with a repetition rate of 80 MHz from a Ti: Sapphire laser head (Mai Tai HP, Spectra-Physics) is split into two parts: one part produces an excitation beam coupled into a photonic crystal fiber (Newport) for wide-spectrum light generation. […]

O=c1[nH]c(=S)[nH]c(N=Cc2ccccc2)c1N=Cc1ccccc1 [Scr7]
MRE11 recruitment at the target site (ChIP-qPCR) [1]: suppressed MRE11 recruitment

O=C(c1cc(Cc2n[nH]c(=O)c3ccccc23)ccc1F)N1CCN(C(=O)C2CC2)CC1 [Olaparib]
MRE11 recruitment at the target site (ChIP-qPCR) [1]: did not exhibit a clear effect

CCN1CCN(CC(=O)Nc2ccc(-c3cccc4c(=O)cc(N5CCOCC5)oc34)c3sc4ccccc4c23)CC1 [Ku-60648, 2-(4-ethylpiperazin-1-yl)-N-[4-(2-morpholin-4-yl-4-oxochromen-8-yl)dibenzothiophen-1-yl]acetamide]
MRE11 recruitment at the target site (ChIP-qPCR) [1]: significantly increased MRE11 recruitment | estimated RPM enrichment normalized to the no drug sample (MRE11 ChIP-qPCR) ([1]; VEGFA site 2 (4 h, 12 h, 24 h) and HEK site 4 in HEK293T, FANCF site 2 in K562, versus without inhibitor, p=0.0001, n=14): significantly higher | average number of target sites identified across 5 biological replicates ([2]; 25 mg/kg b.i.d., mouse liver (18 sites with vehicle), p<0.05): 27 | target sites identified, sequencing reads pooled across all 5 replicates ([2]; 25 mg/kg b.i.d., mouse liver (51 with vehicle)): 101 | MRE11 ChIP-seq signal in liver ([2]; 25 mg/kg peritoneal b.i.d., versus without DNA-PKcs inhibition, p<1E-4): significantly increased MRE11 ChIP-seq signal | off-target sites identified genome-wide ([3]; Cas9 targeting TRA, 12 hours (4 with DISCOVER-Seq)): 20 | MRE11 enrichment at all discovered sites ([3]; Cas9 targeting TRA, versus DISCOVER-Seq without drug): significantly greater MRE11 enrichment | MRE11 enrichment in samples without Cas9 (negative control) ([3]; samples without Cas9): did not exhibit any change in enrichment | MRE11 ChIP-seq enrichment at all discovered on- and off-target sites ([4]; K562, 12 hours after Cas9 delivery, FANCF site 2 or VEGFA site 2 gRNA, p<1E-3): significantly increased MRE11 ChIP-seq enrichment | fold increase in discovered Cas9 target sites versus without DNA-PKcs inhibition ([4]; VEGFA site 2 gRNA, K562): over 5 fold | total Cas9 target sites discovered ([4]; VEGFA site 2 gRNA, K562, with DNA-PKcs inhibition (36 sites without)): 181 | indel editing after Cas9 targeting ACTB (Cas9 editing of ACTB): reduction in editing | penetration into tissue [5]: strongly penetrations into tissue including tumors | pharmacokinetics [5]: good pharmacokinetics | 53BP1 foci relative to BRCA1 ([6]; Cas9 with multi-target gRNA targeting over 100 locations): reduction in 53BP1 foci relative to BRCA1 | number of 53BP1 and BRCA1 foci in the absence of Cas9 (DNA damage by inhibitor alone) ([6]; without Cas9): did not change the number of 53BP1 and BRCA1 foci

O=c1cc(N2CCOCC2)oc2c1ccc1ccccc12 [Nu7026, 2-(morpholin-4-yl)benzo (h) chromen-4-one]
MRE11 recruitment at the target site (ChIP-qPCR) [1]: significantly increased MRE11 recruitment

O=c1cc(-c2cccc3c2Sc2ccccc2S3)oc(N2CCOCC2)c1 [Ku-55933]
MRE11 recruitment at the target site (ChIP-qPCR) [1]: did not exhibit a clear effect

Reference: patent US20250002991A1, “METHODS AND COMPOSITIONS FOR GENOME EDITING” (THE JOHNS HOPKINS UNIVERSITY, priority 2021, published 2025)
